# Read-outs that look alike come from different tables or passages of the source.
# Experiments:
# [1] = Oral pharmacokinetics in mice; format: in vivo, mouse; conditions: oral suspension, 10 to 100 mg/kg
# Experimental: Measurements were performed on TQD and QToF mass spectrometers (Waters).
# Following oral administration of a suspension formulation at doses of 10 to 100 mg/kg, maximal concentrations were observed within 1 to 2 h in mice, and within 1 to 24 h in rats and monkeys.
# [2] = tested on: micronucleated polychromatic erythrocytes; experiment: In vivo micronucleus study
# [3] = tested on: pulmonary function; experiment: Pulmonary evaluation in rats; format: in vivo, rat; conditions: single oral dose up to and including 30 mg/kg
# Experimental: One additional group of 8 animals/sex served as the control and received vehicle (sesame oil).
# Observations for mortality, morbidity, injury, and availability of food and water were conducted twice daily for all animals. Clinical observations were conducted prior to dosing, approximately 4 h post-dose, and following completion of the 8-h pulmonary monitoring period. […] Pulmonary function (respiratory rate, tidal volume, and minute volume) was monitored for at least 1 h prior to dosing to establish a baseline and for at least 8 h post-dose.
# [4] = tested on: cardiovascular function; experiment: Cardiovascular evaluation in conscious cynomolgus monkeys (telemetry); format: in vivo, cynomolgus monkey
# Experimental: Animals were instrumented with telemetry transmitters for measurement of body temperature, blood pressure, heart rate, and electrocardiogram (ECG) evaluation. Body temperature, systolic, diastolic, and mean arterial blood pressure, heart rate, and ECG parameters (QRS duration and RR, PR, and QT intervals) were monitored continuously from at least 2 h pre-dose until at least 24 h post-dose. ECG tracings were printed at designated time points from the cardiovascular monitoring data and were qualitatively evaluated by a board-certified veterinary cardiologist.
# Observations for morbidity, mortality, injury, and availability of food and water were conducted at least twice daily for all animals. Clinical observations were conducted pre-dose, approximately 4 h post-dose, and following completion of the cardiovascular monitoring period. Body weights were measured and recorded on the day prior to each treatment administration.
# [5] = 28-day toxicity study in rats; format: in vivo, rat
# [6] = tested on: ovalbumin-induced asthma; experiment: Ovalbumin-induced asthma in mice; format: in vivo, mouse
# Text: Mice were sensitized with an IP injection of ovalbumin and aluminum hydroxide on Day 0 and Day 14 and challenged intranasally with ovalbumin in saline on Days 14, 25, 26, and 27. […] An increase in the number of T cells and B cells was also observed in the vehicle-treated mice.
# [7] = tested on: neurobehavioral measures; experiment: Neurobehavioral evaluation (FOB) in rats; format: in vivo, rat
# Experimental: One additional group of 10 animals/sex served as the control and received vehicle (sesame oil).
# Observations for morbidity, mortality, injury, and availability of food and water were conducted twice daily for all animals. Observations for clinical signs were conducted prior to dosing on Day 1 and following each functional observational battery (FOB) evaluation. FOB evaluations were conducted pre-dose (Day −1) and at approximately 4 and 24 h post-dose. Body weights were measured and recorded pre-dose on Day 1.
# [8] = molecular target: CYP2C9 (Homo sapiens, UniProt P11712); experiment: CYP450 inhibition in pooled human liver microsomes, CYP2C9; format: in vitro ADME; conditions: highest concentration tested (3 μM)
# CYP2C9, sequence (P11712 whole entry): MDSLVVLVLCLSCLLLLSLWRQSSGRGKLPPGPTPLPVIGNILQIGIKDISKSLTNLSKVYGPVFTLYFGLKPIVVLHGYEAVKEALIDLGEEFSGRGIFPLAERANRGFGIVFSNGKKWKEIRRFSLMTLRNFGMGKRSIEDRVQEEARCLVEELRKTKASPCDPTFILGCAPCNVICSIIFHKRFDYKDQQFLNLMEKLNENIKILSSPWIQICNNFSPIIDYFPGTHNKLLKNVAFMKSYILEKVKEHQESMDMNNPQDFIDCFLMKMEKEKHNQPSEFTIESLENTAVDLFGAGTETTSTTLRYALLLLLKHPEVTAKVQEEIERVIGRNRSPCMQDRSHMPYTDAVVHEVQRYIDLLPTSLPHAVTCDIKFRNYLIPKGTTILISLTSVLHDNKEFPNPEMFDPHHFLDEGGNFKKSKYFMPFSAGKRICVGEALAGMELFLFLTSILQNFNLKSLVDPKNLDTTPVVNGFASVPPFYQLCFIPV
# Text: In addition, there was little or no evidence of metabolism-dependent inhibition of any of the enzymes tested.
# [9] = Distribution into mouse tissues after PO QD×3; format: in vivo; conditions: mice PO QD×3 25 mg/kg, 6 h after last dose, semi-quantitative
# Experimental: Semi-quantitative analysis of drug content was performed.
# [10] = tested on: lactate in C2Cl2 muscle cells; experiment: Lactate levels in C2Cl2 myotubes; format: cell-based, rodent; conditions: differentiated C2Cl2 myotubes; 1 μM or 2 μM, 3 h
# Experimental: Buffer was removed and saved for measurement of extracellular lactate levels. Cell debris was pelleted by centrifugation (10 min at 14,000 rpm) prior to measurement of lactate. To measure intracellular lactate, cells were suspended in 0.1% Triton X-100 in PBS and lysed by shearing with a 25 gauge needle. Cell lysate was centrifuged (10 min at 14,000 rpm, 4° C.) and lactate was measured in the supernatant. Intracellular and extracellular lactate was measured using the Lactate Assay Kit (BioVision, Catalog # K607-100).
smiles,measurement,setting,value
"CC1(C)CC[C@]2(NC(=O)C(C)(F)F)CC[C@]3(C)[C@H](C(=O)C=C4[C@@]5(C)C=C(C#N)C(=O)C(C)(C)[C@@H]5CC[C@]43C)[C@@H]2C1 [RTA 408, N-((4aS,6aR,6bS,8aR,12aS,14aR,14bS)-11-cyano-2,2,6a,6b,9,9,12a-heptamethyl-10,14-dioxo-1,2,3,4,4a,5,6,6a,6b,7,8,8a,9,10,12a,14,14a,14b-octadecahydropicen-4a-yl)-2,2-difluoropropanamide]",Time of maximal concentrations,[1],1 to 2 h
same,Change from Control (%),"[2]; 125 mg/kg, 24-h timepoint",−8%
same,Number of MPCE/1000 PCE (Mean +/− SD),"[2]; 125 mg/kg, 24-h timepoint",0.3 ± 0.27
same,Number of MPCE/PCE Scored,"[2]; 125 mg/kg, 24-h timepoint",3/10000
same,PCE/Total Erythrocytes (Mean +/− SD),"[2]; 125 mg/kg, 24-h timepoint",0.543 ± 0.03
same,Change from Control (%),"[2]; 125 mg/kg, 48-h timepoint",−14%
same,Number of MPCE/1000 PCE (Mean +/− SD),"[2]; 125 mg/kg, 48-h timepoint",0.2 ± 0.27
same,Number of MPCE/PCE Scored,"[2]; 125 mg/kg, 48-h timepoint",2/10000
same,PCE/Total Erythrocytes (Mean +/− SD),"[2]; 125 mg/kg, 48-h timepoint",0.453 ± 0.03
same,Change from Control (%),"[2]; 250 mg/kg, 24-h timepoint",−12%
same,Number of MPCE/1000 PCE (Mean +/− SD),"[2]; 250 mg/kg, 24-h timepoint",0.3 ± 0.27
same,Number of MPCE/PCE Scored,"[2]; 250 mg/kg, 24-h timepoint",3/10000
same,PCE/Total Erythrocytes (Mean +/− SD),"[2]; 250 mg/kg, 24-h timepoint",0.520 ± 0.06
same,Change from Control (%),"[2]; 250 mg/kg, 48-h timepoint",−26%
same,Number of MPCE/1000 PCE (Mean +/− SD),"[2]; 250 mg/kg, 48-h timepoint",0.2 ± 0.27
same,Number of MPCE/PCE Scored,"[2]; 250 mg/kg, 48-h timepoint",2/10000
same,PCE/Total Erythrocytes (Mean +/− SD),"[2]; 250 mg/kg, 48-h timepoint",0.391 ± 0.02
same,Change from Control (%),"[2]; 500 mg/kg, 24-h timepoint",−28%
same,Number of MPCE/1000 PCE (Mean +/− SD),"[2]; 500 mg/kg, 24-h timepoint",0.0 ± 0.00
same,Number of MPCE/PCE Scored,"[2]; 500 mg/kg, 24-h timepoint",0/10000
same,PCE/Total Erythrocytes (Mean +/− SD),"[2]; 500 mg/kg, 24-h timepoint",0.426 ± 0.07
same,Change from Control (%),"[2]; 500 mg/kg, 48-h timepoint",−36%
same,Number of MPCE/1000 PCE (Mean +/− SD),"[2]; 500 mg/kg, 48-h timepoint",0.3 ± 0.45
same,Number of MPCE/PCE Scored,"[2]; 500 mg/kg, 48-h timepoint",3/10000
same,PCE/Total Erythrocytes (Mean +/− SD),"[2]; 500 mg/kg, 48-h timepoint",0.339 ± 0.05
same,Change from Control (%),"[2]; 1000 mg/kg, 24-h timepoint",−15%
same,Number of MPCE/1000 PCE (Mean +/− SD),"[2]; 1000 mg/kg, 24-h timepoint",0.2 ± 0.27
same,Number of MPCE/PCE Scored,"[2]; 1000 mg/kg, 24-h timepoint",2/10000
same,PCE/Total Erythrocytes (Mean +/− SD),"[2]; 1000 mg/kg, 24-h timepoint",0.498 ± 0.05
same,Change from Control (%),"[2]; 1000 mg/kg, 48-h timepoint",−35%
same,Number of MPCE/1000 PCE (Mean +/− SD),"[2]; 1000 mg/kg, 48-h timepoint",0.1 ± 0.22
same,Number of MPCE/PCE Scored,"[2]; 1000 mg/kg, 48-h timepoint",1/10000
same,PCE/Total Erythrocytes (Mean +/− SD),"[2]; 1000 mg/kg, 48-h timepoint",0.344 ± 0.04
same,Change from Control (%),"[2]; 1500 mg/kg, 24-h timepoint",−15%
same,Number of MPCE/1000 PCE (Mean +/− SD),"[2]; 1500 mg/kg, 24-h timepoint",0.4 ± 0.22
same,Number of MPCE/PCE Scored,"[2]; 1500 mg/kg, 24-h timepoint",4/10000
same,PCE/Total Erythrocytes (Mean +/− SD),"[2]; 1500 mg/kg, 24-h timepoint",0.499 ± 0.06
same,Change from Control (%),"[2]; 1500 mg/kg, 48-h timepoint",−39%
same,Number of MPCE/1000 PCE (Mean +/− SD),"[2]; 1500 mg/kg, 48-h timepoint",0.4 ± 0.42
same,Number of MPCE/PCE Scored,"[2]; 1500 mg/kg, 48-h timepoint",4/10000
same,PCE/Total Erythrocytes (Mean +/− SD),"[2]; 1500 mg/kg, 48-h timepoint",0.376 ± 0.05
same,Change from Control (%),"[2]; 2000 mg/kg, 24-h timepoint",−10%
same,Number of MPCE/1000 PCE (Mean +/− SD),"[2]; 2000 mg/kg, 24-h timepoint",0.2 ± 0.27
same,Number of MPCE/PCE Scored,"[2]; 2000 mg/kg, 24-h timepoint",2/10000
same,PCE/Total Erythrocytes (Mean +/− SD),"[2]; 2000 mg/kg, 24-h timepoint",0.531 ± 0.05
same,Change from Control (%),"[2]; 2000 mg/kg, 48-h timepoint",−32%
same,Number of MPCE/1000 PCE (Mean +/− SD),"[2]; 2000 mg/kg, 48-h timepoint",0.1 ± 0.22
same,Number of MPCE/PCE Scored,"[2]; 2000 mg/kg, 48-h timepoint",1/10000
same,PCE/Total Erythrocytes (Mean +/− SD),"[2]; 2000 mg/kg, 48-h timepoint",0.360 ± 0.03
same,Genotoxicity in the In Vivo Micronucleus Study,"[2]; 125-2000 mg/kg, 24-h and 48-h timepoints",63415 is Negative for Genotoxicity in the In Vivo Micronucleus Study
same,"Pulmonary endpoints (respiratory rate, tidal volume, minute volume)",[3],did not produce any adverse effects
same,Increase in the corrected QT interval (on average),"[4]; 100 mg/kg oral, not considered treatment related",1.6%
same,Cardiovascular function,"[4]; oral, doses up to and including 100 mg/kg",produced no effects on cardiovascular function
same,Transaminases,[5],Transaminase elevations were observed
same,B cells within the airways,[6]; 30 mg/kg,significantly reduced the number and percentage of B cells within the airways
same,Macrophages detected in the airways,[6]; 3 and 30 mg/kg,significantly reduced the number of macrophages
same,Body weight gain approximately 24 h after dosing,[7]; 30 mg/kg,Slight decreases in body weight gain
same,Neurobehavioral endpoints,[7]; single oral dose up to and including 30 mg/kg,did not produce any adverse effects
same,inhibition at 3 µM,[8],< 50%
same,concentration at 6 h,"[9]; brain, read-out: Drug content, Brain",1080 nM
same,concentration at 6 h,"[9]; kidney, read-out: Drug content, Kidney",1600 nM
same,concentration at 6 h,"[9]; liver, read-out: Drug content, Liver",985 nM
same,concentration at 6 h,"[9]; lung, read-out: Drug content, Lung",533 nM
same,concentration at 6 h,"[9]; plasma, read-out: Drug content, Plasma",51 nM
same,concentration at 6 h,"[9]; whole blood, read-out: Drug content, Whole Blood",679 nM
same,Intracellular and extracellular lactate levels,[10],significantly increased intracellular and extracellular lactate levels in a dose-dependent manner

# Reference: patent US9701709B2 (REATA PHARMACEUTICALS, INC., priority 2012, dated 2017)
